Assay results reported in PubChem BioAssay AID1963827 (Molecular Pharmacology Branch, DTP, NCI, 2024).

Tested on: 994946-033-R-J1-PDC complex spheroid viability
Assay: Anticancer human tumor 994946-033-R-J1-PDC patient-derived melanoma cell line growth inhibition [POLQ]
Conditions: for IC50: curve of first compound; for viability, T/C: stronger effect = lower value
Summary of the method: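 Complex spheroid viability model combining PDC tumour cells with endothelial (HUVEC) and MSC stromal cells. Novobiocin, ART-558 or RP6685 were tested singly and in combination with standard and investigational anticancer drugs. Each was titrated in half-log steps from near clinical Cmax, or from 10 microM where Cmax was unknown.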

[1] = second compound 0.0316 µM, first compound 0.0316 µM
[2] = second compound 0.0316 µM, first compound 0.1 µM
[3] = second compound 0.0316 µM, first compound 0.316 µM
[4] = second compound 0.0316 µM, first compound 1 µM
[5] = second compound 0.0316 µM, first compound 3.16 µM
[6] = second compound 0.0316 µM, first compound 10 µM
[7] = second compound 0.1 µM, first compound 0.0316 µM
[8] = second compound 0.1 µM, first compound 0.1 µM
[9] = second compound 0.1 µM, first compound 0.316 µM
[10] = second compound 0.1 µM, first compound 1 µM
[11] = second compound 0.1 µM, first compound 3.16 µM
[12] = second compound 0.1 µM, first compound 10 µM
[13] = second compound 0.316 µM, first compound 0.0316 µM
[14] = second compound 0.316 µM, first compound 0.1 µM
[15] = second compound 0.316 µM, first compound 0.316 µM
[16] = second compound 0.316 µM, first compound 1 µM
[17] = second compound 0.316 µM, first compound 3.16 µM
[18] = second compound 0.316 µM, first compound 10 µM
[19] = second compound 1 µM, first compound 0.0316 µM
[20] = second compound 1 µM, first compound 0.1 µM
[21] = second compound 1 µM, first compound 0.316 µM
[22] = second compound 1 µM, first compound 1 µM
[23] = second compound 1 µM, first compound 3.16 µM
[24] = second compound 1 µM, first compound 10 µM
[25] = second compound 3.16 µM, first compound 0.0316 µM
[26] = second compound 3.16 µM, first compound 0.1 µM
[27] = second compound 3.16 µM, first compound 0.316 µM
[28] = second compound 3.16 µM, first compound 1 µM
[29] = second compound 3.16 µM, first compound 3.16 µM
[30] = second compound 3.16 µM, first compound 10 µM
[31] = second compound 10 µM, first compound 0.0316 µM
[32] = second compound 10 µM, first compound 0.1 µM
[33] = second compound 10 µM, first compound 0.316 µM
[34] = second compound 10 µM, first compound 1 µM
[35] = second compound 10 µM, first compound 3.16 µM
[36] = second compound 10 µM, first compound 10 µM
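Further: spheroids exposed to drugs for 7 days.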
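Wherever viability, T/C is given: 100% = DMSO vehicle treated spheroids.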

Compound O=c1[nH]cc(F)c(=O)[nH]1 + Nc1ccc(C#CCN(C(=O)Cc2ncc(C(F)(F)F)cc2C(F)(F)F)c2ccc(F)cc2)nn1 has an IC50 (second compound 0.0316 µM) greater than 10 µM, an IC50 (second compound 0.1 µM) greater than 10 µM and an IC50 (second compound 0.316 µM) greater than 10 µM. The IC50 (second compound 1 µM) was greater than 10 µM, the IC50 (second compound 3.16 µM) was 5.54 µM and the IC50 (second compound 10 µM) was greater than 10 µM. It also gave a viability, T/C [1] of 104%, a viability, T/C [2] of 114% and a viability, T/C [3] of 92.5%. The viability, T/C [4] was 67.9%, the viability, T/C [5] was 62.8% and the viability, T/C [6] was 54%. For the same compound, the viability, T/C [7] was 101%, the viability, T/C [8] was 75.6% and the viability, T/C [9] was 93.7%. The viability, T/C [10] was 81%, the viability, T/C [11] was 60.1% and the viability, T/C [12] was 68.9%. The viability, T/C [13] was 81.9%, the viability, T/C [14] was 81.1% and the viability, T/C [15] was 104%. The viability, T/C [16] was 70.8%, the viability, T/C [17] was 76.1% and the viability, T/C [18] was 63.1%. For the same compound, the viability, T/C [19] was 100%, the viability, T/C [20] was 83.1% and the viability, T/C [21] was 116%. It also gave a viability, T/C [22] of 61.1%, a viability, T/C [23] of 66.8% and a viability, T/C [24] of 50.8%. The viability, T/C [25] was 97.2%, the viability, T/C [26] was 112% and the viability, T/C [27] was 81.2%. For the same compound, the viability, T/C [28] was 85.3%, the viability, T/C [29] was 49.2% and the viability, T/C [30] was 47%. The viability, T/C [31] was 111%, the viability, T/C [32] was 51.9% and the viability, T/C [33] was 86.9%. The viability, T/C [34] was 67.6%, the viability, T/C [35] was 75.3% and the viability, T/C [36] was 42.4%.
In the case of COc1cc2cc(C(=O)CCC(=O)O)sc2cc1OC + Cc1cccc(N(C)C(=O)C2C(O)CCN2c2nc(C)cc(C(F)(F)F)c2C#N)c1, the IC50 (second compound 0.0316 µM) is reported as greater than 10 µM, the IC50 (second compound 0.1 µM) is reported as greater than 10 µM and the IC50 (second compound 0.316 µM) is reported as greater than 10 µM. The IC50 (second compound 1 µM) was greater than 10 µM, the IC50 (second compound 3.16 µM) was greater than 10 µM and the IC50 (second compound 10 µM) was greater than 10 µM. For the same compound, the viability, T/C [1] was 79.5%, the viability, T/C [2] was 96.4% and the viability, T/C [3] was 130%. The viability, T/C [4] was 74.9%, the viability, T/C [5] was 91% and the viability, T/C [6] was 82.3%. For the same compound, the viability, T/C [7] was 116%, the viability, T/C [8] was 91.4% and the viability, T/C [9] was 102%. The viability, T/C [10] was 88.5%, the viability, T/C [11] was 98.8% and the viability, T/C [12] was 92.8%. It also gave a viability, T/C [13] of 67.7%, a viability, T/C [14] of 96.1% and a viability, T/C [15] of 70.5%. For the same compound, the viability, T/C [16] was 88.2%, the viability, T/C [17] was 79.7% and the viability, T/C [18] was 84.3%. For the same compound, the viability, T/C [19] was 67.6%, the viability, T/C [20] was 86.9% and the viability, T/C [21] was 72.9%. The viability, T/C [22] was 103%, the viability, T/C [23] was 72.3% and the viability, T/C [24] was 80.9%. For the same compound, the viability, T/C [25] was 120%, the viability, T/C [26] was 93.4% and the viability, T/C [27] was 101%. For the same compound, the viability, T/C [28] was 94.4%, the viability, T/C [29] was 110% and the viability, T/C [30] was 94.1%. The viability, T/C [31] was 97.6%, the viability, T/C [32] was 94.4% and the viability, T/C [33] was 92.9%. For the same compound, the viability, T/C [34] was 86.3%, the viability, T/C [35] was 87.8% and the viability, T/C [36] was 76.7%.
COc1ccc([C@@H](O)c2cc(-c3ncnc4cc(N5CCOCC5)ccc34)c(F)cc2Cl)nn1 + Nc1ccc(C#CCN(C(=O)Cc2ncc(C(F)(F)F)cc2C(F)(F)F)c2ccc(F)cc2)nn1 gave an IC50 (second compound 0.0316 µM) of 4.98 µM, an IC50 (second compound 0.1 µM) of 6.83 µM and an IC50 (second compound 0.316 µM) of 3.13 µM. It also gave an IC50 (second compound 1 µM) greater than 10 µM, an IC50 (second compound 3.16 µM) of 7.07 µM and an IC50 (second compound 10 µM) of 4.52 µM. For the same compound, the viability, T/C [1] was 90.3%, the viability, T/C [2] was 114% and the viability, T/C [3] was 75.5%. For the same compound, the viability, T/C [4] was 89%, the viability, T/C [5] was 52.8% and the viability, T/C [6] was 45.2%. The viability, T/C [7] was 91.6%, the viability, T/C [8] was 112% and the viability, T/C [9] was 99.4%. For the same compound, the viability, T/C [10] was 98.7%, the viability, T/C [11] was 62% and the viability, T/C [12] was 44.1%. The viability, T/C [13] was 93.3%, the viability, T/C [14] was 111% and the viability, T/C [15] was 116%. The viability, T/C [16] was 90.6%, the viability, T/C [17] was 50.7% and the viability, T/C [18] was 37.3%. It also gave a viability, T/C [19] of 114%, a viability, T/C [20] of 117% and a viability, T/C [21] of 115%. For the same compound, the viability, T/C [22] was 61.4%, the viability, T/C [23] was 64.5% and the viability, T/C [24] was 55.1%. It also gave a viability, T/C [25] of 109%, a viability, T/C [26] of 87% and a viability, T/C [27] of 102%. It also gave a viability, T/C [28] of 91.3%, a viability, T/C [29] of 67.5% and a viability, T/C [30] of 42.5%. For the same compound, the viability, T/C [31] was 116%, the viability, T/C [32] was 126% and the viability, T/C [33] was 102%. For the same compound, the viability, T/C [34] was 75.7%, the viability, T/C [35] was 62.2% and the viability, T/C [36] was 34%.
